Patent US11969428B2, “Methods and pharmaceutical compositions for treating lymphoid malignancy” (priority 2011, dated 2024)

Assays:
Test in all cases: Ambit KinomeScan screening
Assay type in all cases: binding
Conditions in all cases: CAL-130 10 μM
JAK2(JH1domain) = target: T1, JAK2(JH1domain) (Homo sapiens, UniProt O60674)
T1 construct: JAK2(JH1domain); purchased Ambit (KinomeScan screening)
Outline: (§1)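 Displacement of tagged kinase from bait ligand on solid support was assessed using 10 μM CAL-130. Each value is the fraction of control binding retained, expressed in percent; a cutoff of >35% defines no hit.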

BRK = target: T2, BRK (Homo sapiens, UniProt Q13882)
T2 construct: unspecified tag ("tagged kinases"); purchased Ambit (KinomeScan screening)
Outline: as §1

MAPKAPK2 = target: T3, MAPKAPK2 (Homo sapiens, UniProt P49137)
T3 construct: Ambit (KinomeScan screening)
Outline: as §1

SRPK1 = target: T4, SRPK1 (Homo sapiens, UniProt Q96SB4)
T4 construct: tag, kind not specified; purchased Ambit (KinomeScan screening service)
T4 sequence (Q96SB4 whole entry): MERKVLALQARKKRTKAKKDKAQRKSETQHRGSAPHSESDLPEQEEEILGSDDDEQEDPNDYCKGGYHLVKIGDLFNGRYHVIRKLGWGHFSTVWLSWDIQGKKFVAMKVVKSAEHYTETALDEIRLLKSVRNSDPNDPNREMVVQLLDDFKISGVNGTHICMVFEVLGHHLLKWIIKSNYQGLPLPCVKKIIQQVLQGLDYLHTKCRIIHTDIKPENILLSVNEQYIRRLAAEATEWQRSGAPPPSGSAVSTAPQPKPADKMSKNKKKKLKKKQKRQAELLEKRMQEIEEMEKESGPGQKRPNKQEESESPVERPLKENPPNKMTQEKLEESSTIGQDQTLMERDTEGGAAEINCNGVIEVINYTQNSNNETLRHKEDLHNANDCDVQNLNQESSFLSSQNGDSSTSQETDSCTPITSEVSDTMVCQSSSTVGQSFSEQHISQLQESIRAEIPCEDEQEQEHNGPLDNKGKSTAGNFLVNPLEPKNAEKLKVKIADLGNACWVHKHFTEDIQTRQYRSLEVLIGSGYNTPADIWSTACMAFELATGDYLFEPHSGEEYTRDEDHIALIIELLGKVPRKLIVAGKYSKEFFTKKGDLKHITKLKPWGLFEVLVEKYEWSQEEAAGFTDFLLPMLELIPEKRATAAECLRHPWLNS
Outline: as §1

CDK8 = target: T5, CDK8 (Homo sapiens, UniProt P49336)
T5 construct: purchased Ambit (KinomeScan screening service)
T5 sequence (P49336 whole entry): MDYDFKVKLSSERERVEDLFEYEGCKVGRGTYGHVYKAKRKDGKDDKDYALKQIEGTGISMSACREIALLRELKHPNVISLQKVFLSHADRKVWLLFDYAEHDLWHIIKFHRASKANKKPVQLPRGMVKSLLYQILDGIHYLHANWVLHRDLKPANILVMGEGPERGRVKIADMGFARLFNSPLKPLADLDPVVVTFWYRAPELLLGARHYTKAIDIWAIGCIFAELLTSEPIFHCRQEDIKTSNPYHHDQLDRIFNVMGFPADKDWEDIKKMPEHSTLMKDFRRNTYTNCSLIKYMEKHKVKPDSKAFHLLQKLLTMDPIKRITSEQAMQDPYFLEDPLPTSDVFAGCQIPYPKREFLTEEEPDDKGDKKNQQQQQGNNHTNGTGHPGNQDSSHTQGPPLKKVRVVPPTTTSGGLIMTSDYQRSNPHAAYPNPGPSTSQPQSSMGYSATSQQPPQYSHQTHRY
Outline: as §1

PRKD1 = target: T6, PRKD1 (Homo sapiens, UniProt Q15139)
T6 construct: purchased Ambit (KinomeScan screening service)
Outline: as §1

PDGFRB = target: T7, PDGFRB (Homo sapiens, UniProt P09619)
T7 construct: unspecified tag ('tagged kinases'); purchased Ambit (KinomeScan screening)
Outline: as §1

CIT = target: T8, CIT (Homo sapiens, UniProt O14578)
T8 construct: purchased Ambit (KinomeScan screening service)
Outline: as §1

RET = target: T9, RET (Homo sapiens, UniProt P07949)
T9 construct: tag (kind not specified); purchased Ambit (KinomeScan screening service)
Outline: as §1

YES = target: T10, YES (Homo sapiens, UniProt P07947)
T10 construct: purchased Ambit (KinomeScan screening service)
Outline: as §1

PDPK1 = target: T11, PDPK1 (Homo sapiens, UniProt O15530)
T11 construct: unspecified tag ('tagged kinases'); purchased Ambit (KinomeScan screening)
Outline: as §1

MERTK = target: T12, MERTK (Homo sapiens, UniProt Q12866)
T12 construct: purchased Ambit (KinomeScan screening)
T12 sequence (Q12866 21-999): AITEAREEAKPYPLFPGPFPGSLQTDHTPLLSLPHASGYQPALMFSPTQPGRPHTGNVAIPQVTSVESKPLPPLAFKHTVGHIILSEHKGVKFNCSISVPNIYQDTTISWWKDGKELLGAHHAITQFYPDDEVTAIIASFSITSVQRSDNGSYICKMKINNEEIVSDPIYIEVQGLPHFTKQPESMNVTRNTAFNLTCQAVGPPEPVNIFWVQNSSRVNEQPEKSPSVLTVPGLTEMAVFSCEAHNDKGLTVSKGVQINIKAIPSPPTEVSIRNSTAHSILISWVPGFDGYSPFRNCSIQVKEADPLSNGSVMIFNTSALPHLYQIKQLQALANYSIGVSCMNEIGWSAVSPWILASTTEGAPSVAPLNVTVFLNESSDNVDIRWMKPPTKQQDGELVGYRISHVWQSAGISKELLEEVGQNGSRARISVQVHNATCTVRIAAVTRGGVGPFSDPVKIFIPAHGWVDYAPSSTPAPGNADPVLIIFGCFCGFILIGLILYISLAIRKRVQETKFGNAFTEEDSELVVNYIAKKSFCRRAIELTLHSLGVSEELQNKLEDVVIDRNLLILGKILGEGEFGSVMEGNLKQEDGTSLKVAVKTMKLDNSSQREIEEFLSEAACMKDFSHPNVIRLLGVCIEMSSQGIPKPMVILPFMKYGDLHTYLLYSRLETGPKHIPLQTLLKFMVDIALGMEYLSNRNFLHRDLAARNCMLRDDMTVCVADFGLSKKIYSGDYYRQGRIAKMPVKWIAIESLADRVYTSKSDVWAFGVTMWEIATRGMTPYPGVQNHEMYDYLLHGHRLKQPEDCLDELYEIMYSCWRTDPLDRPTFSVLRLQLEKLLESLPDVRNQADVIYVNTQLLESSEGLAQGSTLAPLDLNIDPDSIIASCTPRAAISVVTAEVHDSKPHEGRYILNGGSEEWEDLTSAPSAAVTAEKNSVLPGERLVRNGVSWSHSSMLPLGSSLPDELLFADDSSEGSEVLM
Outline: as §1

LCK = target: T13, LCK (Homo sapiens, UniProt P06239)
T13 construct: unspecified tag ('tagged kinases'); purchased Ambit (KinomeScan screening service)
T13 sequence (P06239 whole entry): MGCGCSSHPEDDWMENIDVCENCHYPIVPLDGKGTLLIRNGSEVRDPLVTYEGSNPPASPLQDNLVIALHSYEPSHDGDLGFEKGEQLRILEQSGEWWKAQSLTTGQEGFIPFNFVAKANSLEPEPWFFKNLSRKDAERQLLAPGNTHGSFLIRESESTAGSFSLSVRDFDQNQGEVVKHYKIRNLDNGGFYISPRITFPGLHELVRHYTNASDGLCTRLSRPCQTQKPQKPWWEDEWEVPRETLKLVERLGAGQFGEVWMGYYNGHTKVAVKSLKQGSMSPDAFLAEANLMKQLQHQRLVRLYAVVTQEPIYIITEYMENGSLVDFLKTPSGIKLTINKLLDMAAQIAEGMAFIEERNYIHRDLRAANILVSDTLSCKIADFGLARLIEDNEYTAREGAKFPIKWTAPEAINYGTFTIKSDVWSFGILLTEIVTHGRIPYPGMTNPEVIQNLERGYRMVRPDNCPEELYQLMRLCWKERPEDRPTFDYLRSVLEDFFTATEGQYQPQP
Outline: as §1

SLK = target: T14, SLK (Homo sapiens, UniProt Q9H2G2)
T14 construct: tag, kind not specified; purchased Ambit (KinomeScan screening service)
Outline: as §1

LIMK1 = target: T15, LIMK1 (Homo sapiens, UniProt P53667)
T15 construct: unspecified tag ('tagged kinases'); purchased Ambit (KinomeScan screening service)
Outline: as §1

PIK3CG = target: T16, PIK3CG (Homo sapiens, UniProt P48736)
T16 construct: unspecified tag; purchased Ambit (KinomeScan screening panel)
T16 sequence (P48736 whole entry): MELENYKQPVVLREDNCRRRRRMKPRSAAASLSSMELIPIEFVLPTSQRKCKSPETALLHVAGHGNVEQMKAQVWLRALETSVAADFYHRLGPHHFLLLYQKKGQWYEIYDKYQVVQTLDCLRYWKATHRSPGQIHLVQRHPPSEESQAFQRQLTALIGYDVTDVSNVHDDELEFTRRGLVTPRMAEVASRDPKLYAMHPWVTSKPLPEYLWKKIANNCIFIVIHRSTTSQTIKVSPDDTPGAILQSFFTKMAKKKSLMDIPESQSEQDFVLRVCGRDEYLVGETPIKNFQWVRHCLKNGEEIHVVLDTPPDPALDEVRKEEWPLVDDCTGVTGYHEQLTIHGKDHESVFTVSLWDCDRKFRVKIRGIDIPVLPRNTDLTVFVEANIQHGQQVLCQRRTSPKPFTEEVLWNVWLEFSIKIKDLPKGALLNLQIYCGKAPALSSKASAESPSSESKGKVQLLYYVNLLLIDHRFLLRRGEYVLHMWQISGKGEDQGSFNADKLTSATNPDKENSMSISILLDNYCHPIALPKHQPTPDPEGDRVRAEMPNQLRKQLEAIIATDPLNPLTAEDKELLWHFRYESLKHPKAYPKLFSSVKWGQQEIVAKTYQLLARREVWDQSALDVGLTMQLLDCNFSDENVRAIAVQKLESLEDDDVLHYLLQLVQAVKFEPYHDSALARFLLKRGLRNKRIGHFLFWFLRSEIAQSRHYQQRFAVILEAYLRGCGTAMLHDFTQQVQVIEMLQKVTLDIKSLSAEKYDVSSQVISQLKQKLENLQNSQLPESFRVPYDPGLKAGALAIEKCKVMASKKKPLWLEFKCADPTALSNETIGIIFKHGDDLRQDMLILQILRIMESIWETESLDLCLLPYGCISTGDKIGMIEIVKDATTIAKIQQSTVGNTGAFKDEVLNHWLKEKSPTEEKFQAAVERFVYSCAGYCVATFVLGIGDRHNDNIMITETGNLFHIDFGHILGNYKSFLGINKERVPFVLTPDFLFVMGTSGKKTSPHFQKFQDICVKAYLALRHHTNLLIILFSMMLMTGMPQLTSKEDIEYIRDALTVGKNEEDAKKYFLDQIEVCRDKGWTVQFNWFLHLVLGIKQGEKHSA
Outline: as §1

TRKA = target: T17, TRKA (Homo sapiens, UniProt P04629)
T17 construct: unspecified tag (tagged kinase); purchased Ambit (KinomeScan screening)
Outline: as §1

PKAC-β = target: T18, PKAC-β (Homo sapiens, UniProt P22694)
T18 construct: unspecified tag; purchased Ambit (KinomeScan screening panel)
Outline: as §1

CAMK2G = target: T19, CAMK2G (Homo sapiens, UniProt Q13555)
T19 construct: purchased Ambit (KinomeScan screening)
Outline: as §1

JAK1(JH2domain) = target: T20, JAK1(JH2domain) (Homo sapiens, UniProt P23458)
T20 construct: JAK1(JH2domain); purchased Ambit (KinomeScan screening)
Outline: as §1

CLK2 = target: T21, CLK2 (Homo sapiens, UniProt P49760)
T21 construct: purchased Ambit (KinomeScan screening service)
Outline: as §1

FLT3(N841I) = target: T22, FLT3(N841I) (Homo sapiens, UniProt P36888, N841I)
T22 construct: unspecified tag; purchased Ambit (KinomeScan screening service)
Outline: as §1

WEE2 = target: T23, WEE2 (Homo sapiens, UniProt P0C1S8)
T23 construct: purchased Ambit (KinomeScan screening service)
Outline: as §1

p38-β = target: T24, p38-β (Homo sapiens, UniProt Q15759)
T24 construct: purchased Ambit (KinomeScan screening service)
Outline: as §1

ERK8 = target: T25, ERK8 (Homo sapiens, UniProt Q8TD08)
T25 construct: unspecified tag ("tagged kinases"); purchased Ambit (KinomeScan screening service)
T25 sequence (Q8TD08 whole entry): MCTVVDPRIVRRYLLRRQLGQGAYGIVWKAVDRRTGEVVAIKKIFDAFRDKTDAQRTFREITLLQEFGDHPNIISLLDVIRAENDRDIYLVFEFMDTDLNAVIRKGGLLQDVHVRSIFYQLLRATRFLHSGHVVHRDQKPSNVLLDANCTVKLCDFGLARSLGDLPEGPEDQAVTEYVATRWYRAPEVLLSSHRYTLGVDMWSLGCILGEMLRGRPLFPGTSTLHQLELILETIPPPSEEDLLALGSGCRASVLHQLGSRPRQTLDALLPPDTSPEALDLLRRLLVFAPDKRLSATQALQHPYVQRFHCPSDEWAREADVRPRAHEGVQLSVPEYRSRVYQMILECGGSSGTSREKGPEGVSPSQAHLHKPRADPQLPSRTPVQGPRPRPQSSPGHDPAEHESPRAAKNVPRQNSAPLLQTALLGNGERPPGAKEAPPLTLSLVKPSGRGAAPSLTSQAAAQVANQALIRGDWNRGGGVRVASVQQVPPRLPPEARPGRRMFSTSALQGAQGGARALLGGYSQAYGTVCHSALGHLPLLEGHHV
Outline: as §1

CDKL5 = target: T26, CDKL5 (Homo sapiens, UniProt O76039)
T26 construct: purchased Ambit (KinomeScan screening service)
Outline: as §1

ABL1(E255K) = target: T27, ABL1(E255K) (Homo sapiens, UniProt P00519, E255K)
T27 construct: unspecified tag ("tagged kinases"); purchased Ambit (KinomeScan screening)
Outline: as §1

EPHA1 = target: T28, EPHA1 (Homo sapiens, UniProt P21709)
T28 construct: purchased Ambit (KinomeScan screening service)
Outline: as §1

EPHA5 = target: T29, EPHA5 (Homo sapiens, UniProt P54756)
T29 construct: purchased Ambit (KinomeScan screening service)
Outline: as §1

SNARK = target: T30, SNARK (Homo sapiens, UniProt Q9H093)
T30 construct: tag, kind not specified; purchased Ambit (KinomeScan screening service)
Outline: as §1

ABL1(F317L) = target: T31, ABL1(F317L) (Homo sapiens, UniProt P00519, F317L)
T31 construct: unspecified tag ("tagged kinases"); purchased Ambit (KinomeScan screening)
Outline: as §1

FLT1 = target: T32, FLT1 (Homo sapiens, UniProt P17948)
T32 construct: unspecified tag; purchased Ambit (KinomeScan screening service)
Outline: as §1

ERK1 = target: T33, ERK1 (Homo sapiens, UniProt P27361)
T33 construct: unspecified tag ("tagged kinases"); purchased Ambit (KinomeScan screening service)
Outline: as §1

CTK = target: T34, CTK (Homo sapiens, UniProt P42679)
T34 construct: purchased Ambit (KinomeScan screening service)
T34 sequence (P42679 whole entry): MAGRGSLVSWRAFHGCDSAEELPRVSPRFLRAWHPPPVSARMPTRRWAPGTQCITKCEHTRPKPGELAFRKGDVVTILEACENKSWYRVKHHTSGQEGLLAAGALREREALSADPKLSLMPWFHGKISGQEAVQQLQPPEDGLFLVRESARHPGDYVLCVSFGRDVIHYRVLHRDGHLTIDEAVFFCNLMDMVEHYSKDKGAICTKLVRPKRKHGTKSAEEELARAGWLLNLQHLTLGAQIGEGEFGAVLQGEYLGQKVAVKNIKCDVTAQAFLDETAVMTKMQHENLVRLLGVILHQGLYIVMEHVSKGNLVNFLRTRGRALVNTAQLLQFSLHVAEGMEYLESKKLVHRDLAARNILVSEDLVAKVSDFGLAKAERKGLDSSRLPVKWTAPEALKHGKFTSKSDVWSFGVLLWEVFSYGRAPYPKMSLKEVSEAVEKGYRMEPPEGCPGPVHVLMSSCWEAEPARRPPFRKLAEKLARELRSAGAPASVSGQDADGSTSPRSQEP
Outline: as §1

IRAK3 = target: T35, IRAK3 (Homo sapiens, UniProt Q9Y616)
T35 construct: purchased Ambit (KinomeScan screening)
Outline: as §1

T1 sequence (O60674 849-1124 limits assumed): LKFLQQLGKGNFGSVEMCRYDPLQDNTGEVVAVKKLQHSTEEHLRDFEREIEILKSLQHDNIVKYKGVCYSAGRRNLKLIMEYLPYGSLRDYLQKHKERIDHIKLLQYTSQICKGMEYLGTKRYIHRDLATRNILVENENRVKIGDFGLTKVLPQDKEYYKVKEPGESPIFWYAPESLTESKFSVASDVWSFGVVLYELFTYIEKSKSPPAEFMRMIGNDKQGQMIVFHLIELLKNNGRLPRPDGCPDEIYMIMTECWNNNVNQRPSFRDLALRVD

Cc1ccccc1-n1c(C(C)Nc2nc(N)nc3nc[nH]c23)nc2cccc(C)c2c1=O (stereo not drawn) [CAL-130]
Percent of Control Binding (JAK2(JH1domain)): 100%
Percent of Control Binding (BRK): 100%
Percent of Control Binding (MAPKAPK2): 100%
Percent of Control Binding (SRPK1): 100%
Percent of Control Binding (CDK8): 100%
Percent of Control Binding (PRKD1): 100%
Percent of Control Binding (PDGFRB): 100%
Percent of Control Binding (CIT): 100%
Percent of Control Binding (RET): 100%
Percent of Control Binding (YES): 100%
Percent of Control Binding (PDPK1): 100%
Percent of Control Binding (MERTK): 100%
Percent of Control Binding (LCK): 100%
Percent of Control Binding (SLK): 100%
Percent of Control Binding (LIMK1): 100%
Percent of Control Binding (PIK3CG; PI3KCG (Table 2)): 1.2%
Percent of Control Binding (PIK3CG; PIK3CG / PI3Kγ (Table 1)): 10%
Percent of Control Binding (TRKA): 100%
Percent of Control Binding (PKAC-β): 100%
Percent of Control Binding (CAMK2G): 100%
Percent of Control Binding (JAK1(JH2domain)): 100%
Percent of Control Binding (CLK2): 100%
Percent of Control Binding (FLT3(N841I)): 100%
Percent of Control Binding (WEE2): 100%
Percent of Control Binding (p38-β): 100%
Percent of Control Binding (ERK8): 100%
Percent of Control Binding (CDKL5): 100%
Percent of Control Binding (ABL1(E255K)): 100%
Percent of Control Binding (EPHA1): 100%
Percent of Control Binding (EPHA5): 100%
Percent of Control Binding (SNARK): 100%
Percent of Control Binding (ABL1(F317L)): 100%
Percent of Control Binding (FLT1): 100%
Percent of Control Binding (ERK1): 100%
Percent of Control Binding (CTK): 100%
Percent of Control Binding (IRAK3): 100%
